Biological target: HPK1 (Homo sapiens (Human), UniProt Q92918)
Assay: HPK1 Kinase Binding Assay
Procedure: A stock solution of 1 mM test compound was prepared in DMSO. The compound plate was prepared by 3-fold and 11-point serial dilutions. 0.1 μL of the compound in DMSO was transferred from the compound plate to the white 384 well polystyrene plates. The assay buffer contained 50 mM HEPES, pH 7.5, 0.01% Tween-20, 5 mM MgCl2, 0.01% BSA, and 5 mM DTT. 5 μl of 4 nM active HPK1 (SignalChem M23-11G) prepared in the buffer was added to the plate. The enzyme concentration given was based on the given stock concentration reported by the vender. 5 μl of 18 nM tracer 222 (ThermoFisher PV6121) and 4 nM LanthaScreen Eu-Anti GST antibody (ThermoFisher PV5595) were added. After one hour incubation at 25° C., the plates were read on a PHERAstar FS plate reader (BMG Labtech). Ki values were determined.

Sequence of HPK1 (Q92918 1-346): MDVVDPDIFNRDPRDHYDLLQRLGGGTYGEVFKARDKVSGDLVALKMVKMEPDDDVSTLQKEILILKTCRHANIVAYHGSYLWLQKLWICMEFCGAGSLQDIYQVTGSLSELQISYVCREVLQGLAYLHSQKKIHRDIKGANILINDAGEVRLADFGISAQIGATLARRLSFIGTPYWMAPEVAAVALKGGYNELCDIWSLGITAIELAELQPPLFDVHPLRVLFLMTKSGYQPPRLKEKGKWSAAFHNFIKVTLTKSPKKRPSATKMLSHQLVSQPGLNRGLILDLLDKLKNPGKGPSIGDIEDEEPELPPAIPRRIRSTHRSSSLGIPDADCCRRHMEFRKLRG

Structure (SMILES) | Ki [nM]
CN1CCN(c2ccc(-c3n[nH]c4cnc(-c5c(F)cccc5Cl)cc34)cc2)CC1 [Example 47, 5-(2-Chloro-6-fluorophenyl)-3-(4-(4-methylpiperazin-1-yl)phenyl)-1H-pyrazolo[3,4-c]pyridine] | ≤ 100
CN1CCN(c2ccc(-c3n[nH]c4cnc(-c5c(F)cc(O)cc5F)cc34)cc2)CC1 [Example 48, 3,5-Difluoro-4-(3-(4-(4-methylpiperazin-1-yl)phenyl)-1H-pyrazolo[3,4-c]pyridin-5-yl)phenol] | ≤ 100
Cc1cccc(F)c1-c1cc2c(-c3ccc(N4CCN(C)CC4)cc3)n[nH]c2cn1 [Example 49, 5-(2-Fluoro-6-methylphenyl)-3-(4-(4-methylpiperazin-1-yl)phenyl)-1H-pyrazolo[3,4-c]pyridine] | ≤ 100
CN1CCN(c2ccc(-c3n[nH]c4cnc(-c5c(Cl)cccc5C(F)(F)F)cc34)cc2)CC1 [Example 50, 5-(2-Chloro-6-(trifluoromethyl)phenyl)-3-(4-(4-methylpiperazin-1-yl)phenyl)-1H-pyrazolo[3,4-c]pyridine] | ≤ 100
CCOc1cccc(F)c1-c1cc2c(-c3ccc(N4CCN(C)CC4)cc3)n[nH]c2cn1 [Example 51, 5-(2-Ethoxy-6-fluorophenyl)-3-(4-(4-methylpiperazin-1-yl)phenyl)-1H-pyrazolo[3,4-c]pyridine] | ≤ 100
COc1cccc(Cl)c1-c1cc2c(-c3ccc(N4CCN(C)CC4)cc3)n[nH]c2cn1 [Example 52, 5-(2-Chloro-6-methoxyphenyl)-3-(4-(4-methylpiperazin-1-yl)phenyl)-1H-pyrazolo[3,4-c]pyridine] | ≤ 100
CN1CCN(c2ccc(-c3n[nH]c4cnc(-c5c(F)cccc5C(F)(F)F)cc34)cc2)CC1 [Example 53, 5-(2-Fluoro-6-(trifluoromethyl)phenyl)-3-(4-(4-methylpiperazin-1-yl)phenyl)-1H-pyrazolo[3,4-c]pyridine] | ≤ 100
COc1cccc(F)c1-c1cc2c(C(=O)Nc3ccc(N4CCN(C)CC4)cc3)n[nH]c2cn1 [Example 54, 5-(2-Fluoro-6-methoxyphenyl)-N-(4-(4-methylpiperazin-1-yl)phenyl)-1H-pyrazolo[3,4-c]pyridine-3-carboxamide] | ≤ 100
COc1cccc(F)c1-c1cc2c(C(=O)Nc3ccc(N4CCOCC4)cc3)n[nH]c2cn1 [Example 55, 5-(2-Fluoro-6-methoxyphenyl)-N-(4-morpholinophenyl)-1H-pyrazolo[3,4-c]pyridine-3-carboxamide] | ≤ 100
CCN1CCN(c2ccc(NC(=O)c3n[nH]c4cnc(-c5c(F)cccc5OC)cc34)cc2)CC1 [Example 56, N-(4-(4-Ethylpiperazin-1-yl)phenyl)-5-(2-fluoro-6-methoxyphenyl)-1H-pyrazolo[3,4-c]pyridine-3-carboxamide] | ≤ 100
COCCNC(=O)c1cc(F)c(-c2cc3c(-c4cnn(C)c4)n[nH]c3cn2)c(F)c1 [Example 57, 3,5-Difluoro-N-(2-methoxyethyl)-4-(3-(1-methyl-1H-pyrazol-4-yl)-1H-pyrazolo[3,4-c]pyridin-5-yl)benzamide] | ≤ 100
COC1CN(C(=O)c2cc(F)c(-c3cc4c(-c5cnn(C)c5)n[nH]c4cn3)c(F)c2)C1 [Example 58, (3,5-Difluoro-4-(3-(1-methyl-1H-pyrazol-4-yl)-1H-pyrazolo[3,4-c]pyridin-5-yl)phenyl)(3-methoxyazetidin-1-yl)methanone] | ≤ 100
Cn1cc(-c2n[nH]c3cnc(-c4c(F)ccc(NC(=O)C5CCC5)c4F)cc23)cn1 [Example 59, N-(2,4-Difluoro-3-(3-(1-methyl-1H-pyrazol-4-yl)-1H-pyrazolo[3,4-c]pyridin-5-yl)phenyl)cyclobutanecarboxamide] | ≤ 100
Cn1cc(-c2n[nH]c3cnc(-c4c(F)ccc(NC(=O)Cc5ccccc5)c4F)cc23)cn1 [Example 60, N-(2,4-Difluoro-3-(3-(1-methyl-1H-pyrazol-4-yl)-1H-pyrazolo[3,4-c]pyridin-5-yl)phenyl)-2-phenylacetamide] | ≤ 100
CNc1ccc(F)c(-c2cc3c(-c4cnn(C)c4)n[nH]c3cn2)c1F [Example 61, 2,4-Difluoro-N-methyl-3-(3-(1-methyl-1H-pyrazol-4-yl)-1H-pyrazolo[3,4-c]pyridin-5-yl)aniline] | ≤ 100
CN(C)c1ccc(F)c(-c2cc3c(-c4cnn(C)c4)n[nH]c3cn2)c1F [Example 62, 2,4-Difluoro-N,N-dimethyl-3-(3-(1-methyl-1H-pyrazol-4-yl)-1H-pyrazolo[3,4-c]pyridin-5-yl)aniline] | ≤ 100
CN(C)c1cc(F)c(-c2cc3c(-c4cnn(C)c4)n[nH]c3cn2)c(F)c1 [Example 63, 3,5-Difluoro-N,N-dimethyl-4-(3-(1-methyl-1H-pyrazol-4-yl)-1H-pyrazolo[3,4-c]pyridin-5-yl)aniline] | ≤ 100
Cn1cc(-c2n[nH]c3cnc(-c4c(F)cc(NC(=O)CN5CCCC5)cc4F)cc23)cn1 [Example 64, N-(3,5-Difluoro-4-(3-(1-methyl-1H-pyrazol-4-yl)-1H-pyrazolo[3,4-c]pyridin-5-yl)phenyl)-2-(pyrrolidin-1-yl)acetamide] | ≤ 100
Cn1cc(C(=O)Nc2cc(F)c(-c3cc4c(-c5cnn(C)c5)n[nH]c4cn3)c(F)c2)cn1 [Example 65, N-(3,5-Difluoro-4-(3-(1-methyl-1H-pyrazol-4-yl)-1H-pyrazolo[3,4-c]pyridin-5-yl)phenyl)-1-methyl-1H-pyrazole-4-carboxamide] | ≤ 100
Cn1cc(-c2n[nH]c3cnc(-c4c(F)cc(NC(=O)CC5CCCC5)cc4F)cc23)cn1 [Example 66, 2-Cyclopentyl-N-(3,5-difluoro-4-(3-(1-methyl-1H-pyrazol-4-yl)-1H-pyrazolo[3,4-c]pyridin-5-yl)phenyl)acetamide] | ≤ 100
Cn1cc(-c2n[nH]c3cnc(-c4c(F)cc(NC(=O)CN5C6CCC5CC6)cc4F)cc23)cn1 [Example 68, 2-(7-Azabicyclo[2.2.1]heptan-7-yl)-N-(3,5-difluoro-4-(3-(1-methyl-1H-pyrazol-4-yl)-1H-pyrazolo[3,4-c]pyridin-5-yl)phenyl)acetamide] | ≤ 100

Second part, the molecule after the results:

Ki [nM] | Structure (SMILES)
≤ 100 | Cn1cc(-c2n[nH]c3cnc(-c4c(F)cc(NC(=O)Cc5cccnc5)cc4F)cc23)cn1 [Example 67, N-(3,5-Difluoro-4-(3-(1-methyl-1H-pyrazol-4-yl)-1H-pyrazolo[3,4-c]pyridin-5-yl)phenyl)-2-(pyridin-3-yl)acetamide]
≤ 100 | Cn1cc(-c2n[nH]c3cnc(-c4c(F)cc(NC(=O)CN5CC6(CCOCC6)C5)cc4F)cc23)cn1 [Example 69, N-(3,5-Difluoro-4-(3-(1-methyl-1H-pyrazol-4-yl)-1H-pyrazolo[3,4-c]pyridin-5-yl)phenyl)-2-(7-oxa-2-azaspiro[3.5]nonan-2-yl)acetamide]
≤ 100 | CC(C(=O)Nc1cc(F)c(-c2cc3c(-c4cnn(C)c4)n[nH]c3cn2)c(F)c1)N1CCCC1 (centres unmarked) [Example 70, N-(3,5-Difluoro-4-(3-(1-methyl-1H-pyrazol-4-yl)-1H-pyrazolo[3,4-c]pyridin-5-yl)phenyl)-2-(pyrrolidin-1-yl)propanamide]
≤ 100 | COCCNC(=O)Nc1cc(F)c(-c2cc3c(-c4cnn(C)c4)n[nH]c3cn2)c(F)c1 [Example 71, 1-(3,5-Difluoro-4-(3-(1-methyl-1H-pyrazol-4-yl)-1H-pyrazolo[3,4-c]pyridin-5-yl)phenyl)-3-(2-methoxyethyl)urea]
≤ 100 | Cn1cc(-c2n[nH]c3cnc(-c4c(F)cc(NC(=O)CN5CCC5)cc4OC(F)F)cc23)cn1 [Example 72, 2-(Azetidin-1-yl)-N-(3-(difluoromethoxy)-5-fluoro-4-(3-(1-methyl-1H-pyrazol-4-yl)-1H-pyrazolo[3,4-c]pyridin-5-yl)phenyl)acetamide]
≤ 100 | Cn1cc(-c2n[nH]c3cnc(-c4c(F)cc(NC(=O)CN5CCCC5)cc4Cl)cc23)cn1 [Example 73, N-(3-Chloro-5-fluoro-4-(3-(1-methyl-1H-pyrazol-4-yl)-1H-pyrazolo[3,4-c]pyridin-5-yl)phenyl)-2-(pyrrolidin-1-yl)acetamide]
≤ 100 | COc1cc(NC(=O)CN2CCCC2)cc(F)c1-c1cc2c(-c3cnn(C)c3)n[nH]c2cn1 [Example 74, N-(3-Fluoro-5-methoxy-4-(3-(1-methyl-1H-pyrazol-4-yl)-1H-pyrazolo[3,4-c]pyridin-5-yl)phenyl)-2-(pyrrolidin-1-yl)acetamide]
≤ 100 | COc1cc(NC(=O)CN2CC(C)(C)C2)cc(F)c1-c1cc2c(-c3cnn(C)c3)n[nH]c2cn1 [Example 75, 2-(3,3-Dimethylazetidin-1-yl)-N-(3-fluoro-5-methoxy-4-(3-(1-methyl-1H-pyrazol-4-yl)-1H-pyrazolo[3,4-c]pyridin-5-yl)phenyl)acetamide]
≤ 100 | COc1cc(NC(=O)OC2CCN(C)CC2)cc(F)c1-c1cc2c(-c3cnn(C)c3)n[nH]c2cn1 [Example 76, 1-Methylpiperidin-4-yl 3-fluoro-5-methoxy-4-(3-(1-methyl-1H-pyrazol-4-yl)-1H-pyrazolo[3,4-c]pyridin-5-yl)phenylcarbamate]
≤ 100 | Cn1cc(-c2n[nH]c3cnc(-c4c(F)cc(NC(=O)CN5CCC5)c(F)c4F)cc23)cn1 [Example 77, 2-(Azetidin-1-yl)-N-(2,3,5-trifluoro-4-(3-(1-methyl-1H-pyrazol-4-yl)-1H-pyrazolo[3,4-c]pyridin-5-yl)phenyl)acetamide]
≤ 100 | Cc1cc(NC(=O)CN(C)C)cc(Cl)c1-c1cc2c(-c3cnn(C)c3)n[nH]c2cn1 [Example 78, N-(3-Chloro-5-methyl-4-(3-(1-methyl-1H-pyrazol-4-yl)-1H-pyrazolo[3,4-c]pyridin-5-yl)phenyl)-2-(dimethylamino)acetamide]

From patent US10435405B2, “Pyrazolopyridine compounds and uses thereof” (Incyte Corporation, priority 2016, dated 2019)
